The numbers were not newly measured in paper PMC10855781 (International Journal of Molecular Sciences, 2024), which cites them from elsewhere.

One series concerns mice. The text has this: The most widely studied oxime-linked daunomycin–peptide conjugates were GnRH-III-based derivatives. GnRH-III (<[…]-NH2, where <E is pyroglutamic acid) was first isolated from sea lamprey and has a very low-level hormonal effect in mammals, but binds to both the human GnRH receptors (GnRH-IR and GnRH-IIR). […] Nevertheless, the results of the in vivo acute and chronic toxicity measureme ...

The next series concerns DNA. Conditions: apparent equilibrium binding constant; ref [72]. The text has this:
Figure 2 The equilibrium binding constants of daunomycin (Dau) and its oxime-linked amino acid derivatives to DNA. TEXT PRINTED IN THE PICTURE: Dau: K (x10^5)(M^−1): 11.7 | H-Lys(Dau=Aoa-OH): K (x10^5)(M^−1): 6.8 | Dau=Aoa-Gly-OH: K (x10^5)(M^−1): 6.74 | Dau=Aoa-Tyr-OH: K (x10^5)(M^−1): 4.4 | Dau=Aoa-Leu-OH: K (x10^5)(M^−1): 3.23

The test system of a further series is C26 colon tumor. Conditions: (w) tumor weight reduction, day 13; treatments days 4 and 7; conjugates 26.6 μmol/kg (15 mg Dau content), Dau 2 mg/kg; ref [82],[86]. On the procedure:
Table 3 In vivo tumor growth inhibition of a few relevant Dau-GnRH-III conjugates. | column: C26 orth. […] In the case of the C26 colon tumor-bearing female Balb/c mice, only a 7% reduction in tumor weight was detected on day 13 after the two treatments on days 4 and 7 with [^8Lys(Dau=Aoa)]-GnRH-III, at a 26.6 μmol/kg (15 mg Dau content) dose. […] It is worth ment ...

Another series deals with HT-29 tumor. Conditions: ref [18]. On the procedure:
In our group, we synthesized conjugates based on a heptapeptide (VHLGYAT) selected by Zhang et al. and tested them on HT-29 human colon adenocarcinoma. Since sequence modification may result in different oxime-linked Dau-amino acid fragments, a cathepsin B- labile spacer was incorporated to the N-terminal of the homing peptide. From the parent compound (Dau=Aoa-LRRY-VHLGYAT-NH2), the potential positions that can be substituted were selected using Ala-scan. […] Statistical analysis was performed by Mann-Whitney test. *, ** and *** mean significant at p < 0.05, p < 0.01 and p < 0.001, respectively. Adapted with permission from ref. [18]. 2019, Elsevier. TEXT PRINTED IN THE PICTURE: (a) Dau: Tumour weight (g): 16% | (a) Parent: Tumour weight (g): 35% | (a) G/F exchange: Tumour weight (g): 11% | (b) Dau: Liver weight (g): 72% | (b) Parent: Liver weight (g): 101% | (b) G/F exchange: Liver weight (g): 90% | (c) Dau: Prol ...

For series [1], the system named is human umbilical vein endothelial cells (HUVEC). Also on record: key: 0: no cardiotoxicity; +: weak; ++: moderate; +++: strong cardiotoxicity. Conditions: long-term (0–72 h) cytotoxic effect, impedimetric; ref [75]. The text has this: Table 2 Comparative study of cytotoxic effects and cardiotoxicity elicited by selected GnRH-based anthracycline conjugates. | column: Cardiotoxicity

Another series deals with HT-29 human colon cancer. Conditions: ref [82]. The text has this: Table 3 In vivo tumor growth inhibition of a few relevant Dau-GnRH-III conjugates. | column: HT-29 orth. SCID [%] || Starting from these promising results, Dau conjugates with further GnRH-III derivatives using different short-chain fatty acids (on the side chains of Lys in position 4) were developed. […] The experiment finished on day 30, but the animals in the group treated with Dau had to be sacrificed on day 23. […] However, these numbers cannot be directly compared because the termination days were different during the experiment. The toxicities of the compound ...

For series [2], the system named is PC-3 human prostatic adenocarcinoma. Also on record: method as in PMID 36834815. The following applies: s.c. PC-3; i.p. 10 mg Dau-content/kg every fifth day from day 9, five treatments; day 33; Dau 1 mg/kg, terminated day 26; ref [84]. The text has this:
This 14-mer peptide (Glp-[…]NH2), first discovered in the skin of the frog Bombina bombina, is associated with the gastrin-releasing peptide (GRP) as a mammalian counterpart. The bombesin receptor family comprises neuromedin receptor B (NMB-R, or BB1), gastrin-releasing peptide receptor (GRP-R, or BB2) and bombesin receptor subtype 3 (BRS-3, or BB3). Among them, GRP-R has been the most investig ...

In series [3] the test system is Human cardiac myocytes (HCM). Further details: key: 0: no cardiotoxicity; +: weak; ++: moderate; +++: strong cardiotoxicity. The following applies: long-term (0–72 h) cytotoxic effect, impedimetric; ref [75]. The text has this: Table 2 Comparative study of cytotoxic effects and cardiotoxicity elicited by selected GnRH-based anthracycline conjugates. | column: Cardiotoxicity || The main drug-related toxic side effect of anthracyclines is cardiotoxicity, leading to cardiomyopathy and heart failure. Comparative experiments to determine the cardiotoxicity of peptide–anthracycline conjugates with different linkages might be informative for the other conjugates with different types of drugs as well. For this purpose, human cardiomyocytes (HCM) and human umbilical vein endothelial cells (HUVEC) were used as models. The long-term (0–72 h) cytotoxic effect of sixteen GnRH-based conjugates containing Dox and Dau was determined by real-time impedimetric sensing using th ...

The next series has as its system C26 murine colon cancer. The following applies: ref [20]. The protocol:
Table 3 In vivo tumor growth inhibition of a few relevant Dau-GnRH-III conjugates. | column: C26 ^a s.c. Balb/c [%] || In our experiments, GnRH-III was applied as a targeting peptide. […] The effect highly depended on the treatment schedule. In the first attempt, the conjugate was administered i.p. at a dose of 8.86 μmol (5 mg Dau-content/kg body weight) five times on days 7, 9, 11, 14 and 16 after tumor transplantation ...

Like-named read-outs stand apart in the source and are kept apart here.

In the case of `COc1cccc2c1C(=O)c1c(O)c3c(c(O)c1C2=O)C[C@@](O)(C(C)=O)C[C@@H]3O[C@H]1C[C@H](N)[C@H](O)[C@H](C)O1` [Dau, daunomycin], the figures for the “dose with remarkable toxicity” value with mice (healthy mice) and in the series with mice (immunodeficient mice) were more than 2 mg/kg and more than 1 mg/kg, respectively. For the same molecule, the “K, equilibrium binding constant to DNA” value with DNA was 1.17e+06 M⁻¹. Also, the “C26 orth. Balb/c tumor growth inhibition (w)” value in the series on C26 colon tumor is recorded as 24.4%. Further, the “tumor weight reduction compared to the control group” value in the series on HT-29 tumor (conjugates 10 mg/kg Dau content i.p. days 13, 16, 20, 23, 27, end day 30, Dau 1 mg/kg days 13 and 20, sacrificed day 23) was 84%. In addition, the “decrease in liver weight vs controls” value in the series with HT-29 tumor (same experiment as E56) was 28%. Besides, in series [1], the “Cardiotoxicity, HUVEC” value is reported as “+++”. Besides, in the series on HT-29 human colon cancer (Dau 1 mg/kg i.v. weekly for 7 weeks), the “relative liver weight loss in comparison with the controls” value is given as 11%. Further, the tumor weight reduction in the series on HT-29 human colon cancer (conjugates 17.72 μmol (10 mg Dau content)/kg s.c. x7, end day 30, Dau 1 mg/kg days 7, 13, 20, sacrificed day 23) is listed as 84.3%. For the same molecule, in the series on HT-29 human colon cancer (conjugates 15 mg Dau content/kg i.v. x5 from day 5, then 7.5 mg i.p. x8, twice a week, Dau 1 mg/kg i.v. weekly for 7 weeks), the “reduction in tumor weight” value is 29.7%. Also, in the series with HT-29 human colon cancer (same experiment as E44, average), the “proliferation index compared to the controls” value is on record as 98.6%. Besides, the “vascularization rate compared to the controls” value in the series with HT-29 human colon cancer (same experiment as E44) is 112.5%. Besides, the “rate of changes in the liver and body weights” value with HT-29 human colon cancer (same experiment as E49) was 70.6%. Moreover, the tumor volume inhibition entry in series [2] was “without showing a significant reduction”; with C26 murine colon cancer (free Dau 2 mg/kg (3.55 μmol) days 7, 9, 11, 14, 16, day 26), 22.6%. The “Cardiotoxicity, HCM” value in [3] is recorded as “+++”. For the same molecule, in the series on C26 murine colon cancer (free Dau 2 mg/kg days 7, 9, 11, 14, 16), the “median survival rate in comparison to the control group” value is 0.81.
